Laboratory results: PubChem BioAssay AID1963848 (Molecular Pharmacology Branch, DTP, NCI, 2024)

System: 379773-124-R-J2-PDC spheroid viability
Assay: Anticancer human tumor 379773-124-R-J2-PDC patient-derived endometrial carcinoma cell line growth inhibition [POLQ]
Details: spheroids with HUVEC and MSC; for IC50: curve of first compound; for viability, T/C: stronger effect = lower value
Outline: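 Complex spheroid viability model combining PDC tumour cells with endothelial (HUVEC) and MSC stromal cells. Novobiocin, ART-558 or RP6685 were tested singly and in combination with standard and investigational anticancer drugs. Each was titrated in half-log steps from near clinical Cmax, or from 10 microM where Cmax was unknown.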
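Also: spheroids exposed to drugs for seven days before readout.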
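For viability, T/C in this document: percent viability relative to DMSO vehicle control taken as 100%.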

CCCS(=O)(=O)Nc1ccc(F)c(C(=O)c2c[nH]c3ncc(-c4ccc(Cl)cc4)cc23)c1F + COC1C(OC(N)=O)C(O)C(Oc2ccc3c(O)c(NC(=O)c4ccc(O)c(CC=C(C)C)c4)c(=O)oc3c2C)OC1(C)C
IC50 (second compound 0.0316 µM): > 10 µM | IC50 (second compound 0.1 µM): > 10 µM | IC50 (second compound 0.316 µM): > 10 µM | IC50 (second compound 1 µM): > 10 µM | IC50 (second compound 3.16 µM): > 10 µM | IC50 (second compound 10 µM): > 10 µM | viability, T/C (second compound 0.0316 µM, first compound 0.0316 µM): 94.2% | viability, T/C (second compound 0.0316 µM, first compound 0.1 µM): 86.8% | viability, T/C (second compound 0.0316 µM, first compound 0.316 µM): 83.8% | viability, T/C (second compound 0.0316 µM, first compound 1 µM): 87.9% | viability, T/C (second compound 0.0316 µM, first compound 3.16 µM): 70.5% | viability, T/C (second compound 0.0316 µM, first compound 10 µM): 57.9% | viability, T/C (second compound 0.1 µM, first compound 0.0316 µM): 86.2% | viability, T/C (second compound 0.1 µM, first compound 0.1 µM): 87.7% | viability, T/C (second compound 0.1 µM, first compound 0.316 µM): 88.3% | viability, T/C (second compound 0.1 µM, first compound 1 µM): 80.3% | viability, T/C (second compound 0.1 µM, first compound 3.16 µM): 73.1% | viability, T/C (second compound 0.1 µM, first compound 10 µM): 55.4% | viability, T/C (second compound 0.316 µM, first compound 0.0316 µM): 77.1% | viability, T/C (second compound 0.316 µM, first compound 0.1 µM): 75.6% | viability, T/C (second compound 0.316 µM, first compound 0.316 µM): 76.8% | viability, T/C (second compound 0.316 µM, first compound 1 µM): 77.6% | viability, T/C (second compound 0.316 µM, first compound 3.16 µM): 66.2% | viability, T/C (second compound 0.316 µM, first compound 10 µM): 52.9% | viability, T/C (second compound 1 µM, first compound 0.0316 µM): 87.6% | viability, T/C (second compound 1 µM, first compound 0.1 µM): 84.4% | viability, T/C (second compound 1 µM, first compound 0.316 µM): 81.8% | viability, T/C (second compound 1 µM, first compound 1 µM): 77.8% | viability, T/C (second compound 1 µM, first compound 3.16 µM): 73.6% | viability, T/C (second compound 1 µM, first compound 10 µM): 58.9% | viability, T/C (second compound 3.16 µM, first compound 0.0316 µM): 73.5% | viability, T/C (second compound 3.16 µM, first compound 0.1 µM): 76.2% | viability, T/C (second compound 3.16 µM, first compound 0.316 µM): 75.8% | viability, T/C (second compound 3.16 µM, first compound 1 µM): 76.4% | viability, T/C (second compound 3.16 µM, first compound 3.16 µM): 75.7% | viability, T/C (second compound 3.16 µM, first compound 10 µM): 61.3% | viability, T/C (second compound 10 µM, first compound 0.0316 µM): 78.5% | viability, T/C (second compound 10 µM, first compound 0.1 µM): 85.4% | viability, T/C (second compound 10 µM, first compound 0.316 µM): 79.8% | viability, T/C (second compound 10 µM, first compound 1 µM): 66.5% | viability, T/C (second compound 10 µM, first compound 3.16 µM): 75.9% | viability, T/C (second compound 10 µM, first compound 10 µM): 60.2%
